Data set [1] concerns the target c-Kit kinase (Homo sapiens (Human), UniProt P10721). Put plainly: c-Kit kinase biochemical activity assay (AlphaScreen, biotin-(E4Y)10 phosphorylation). In general terms: In Alpha technology, singlet oxygen from a donor bead excites a nearby acceptor bead.
For data set [2], the target named is CYP2C9 (Homo sapiens (Human), UniProt P11712). Put plainly: CYP enzyme inhibition, fluorescent substrate. The method, boiled down:
(§1)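 […]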

In data set [3] the target is CYP3A4(BQ) (Homo sapiens (Human), UniProt P08684). Kind of data set: CYP enzyme inhibition, fluorescent substrate. An outline of the steps: as §1
Sequence of CYP3A4(BQ) (P08684 whole entry): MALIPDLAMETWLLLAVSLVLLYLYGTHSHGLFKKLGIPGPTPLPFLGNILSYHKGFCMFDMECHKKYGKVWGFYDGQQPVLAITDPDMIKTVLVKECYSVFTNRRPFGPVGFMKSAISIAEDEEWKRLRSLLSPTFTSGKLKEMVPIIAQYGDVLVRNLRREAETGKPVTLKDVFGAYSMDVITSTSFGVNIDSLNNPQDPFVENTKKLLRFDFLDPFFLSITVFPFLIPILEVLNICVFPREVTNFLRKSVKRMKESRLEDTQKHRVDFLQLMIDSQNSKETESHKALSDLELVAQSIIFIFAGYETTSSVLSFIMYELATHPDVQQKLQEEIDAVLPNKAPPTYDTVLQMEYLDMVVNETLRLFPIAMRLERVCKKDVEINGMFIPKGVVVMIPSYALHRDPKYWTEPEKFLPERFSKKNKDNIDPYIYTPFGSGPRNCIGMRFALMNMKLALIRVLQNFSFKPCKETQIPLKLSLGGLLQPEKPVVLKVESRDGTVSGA
Data set [4] addresses CYP1A2 (Homo sapiens (Human), UniProt P05177). Kind of data set: CYP enzyme inhibition, fluorescent substrate.
Data set [5] concerns the target CYP2D6 (Homo sapiens (Human), UniProt P10635). Put plainly: CYP enzyme inhibition, fluorescent substrate.
Data set [6] concerns the target CYP3A4(BFC) (Homo sapiens (Human), UniProt P08684). Kind of data set: CYP enzyme inhibition, fluorescent substrate. An outline of the steps:
as §1

The target in data set [7] is BCR-FMS/BaF3 cells (Homo sapiens, UniProt P07333). Put plainly: BCR-FMS/BaF3 cell proliferation assay (ATPlite). In kind it is cell-based. The method, boiled down: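 Proliferation read by ATPlite luminescence after 3 days' exposure (37 °C, 5% CO2) to compound in 1:3 dilutions, eight points, maximum 10 μM final, DMSO control.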
Sequence of BCR-FMS/BaF3 cells (P07333 20-972 limits assumed, change not shown): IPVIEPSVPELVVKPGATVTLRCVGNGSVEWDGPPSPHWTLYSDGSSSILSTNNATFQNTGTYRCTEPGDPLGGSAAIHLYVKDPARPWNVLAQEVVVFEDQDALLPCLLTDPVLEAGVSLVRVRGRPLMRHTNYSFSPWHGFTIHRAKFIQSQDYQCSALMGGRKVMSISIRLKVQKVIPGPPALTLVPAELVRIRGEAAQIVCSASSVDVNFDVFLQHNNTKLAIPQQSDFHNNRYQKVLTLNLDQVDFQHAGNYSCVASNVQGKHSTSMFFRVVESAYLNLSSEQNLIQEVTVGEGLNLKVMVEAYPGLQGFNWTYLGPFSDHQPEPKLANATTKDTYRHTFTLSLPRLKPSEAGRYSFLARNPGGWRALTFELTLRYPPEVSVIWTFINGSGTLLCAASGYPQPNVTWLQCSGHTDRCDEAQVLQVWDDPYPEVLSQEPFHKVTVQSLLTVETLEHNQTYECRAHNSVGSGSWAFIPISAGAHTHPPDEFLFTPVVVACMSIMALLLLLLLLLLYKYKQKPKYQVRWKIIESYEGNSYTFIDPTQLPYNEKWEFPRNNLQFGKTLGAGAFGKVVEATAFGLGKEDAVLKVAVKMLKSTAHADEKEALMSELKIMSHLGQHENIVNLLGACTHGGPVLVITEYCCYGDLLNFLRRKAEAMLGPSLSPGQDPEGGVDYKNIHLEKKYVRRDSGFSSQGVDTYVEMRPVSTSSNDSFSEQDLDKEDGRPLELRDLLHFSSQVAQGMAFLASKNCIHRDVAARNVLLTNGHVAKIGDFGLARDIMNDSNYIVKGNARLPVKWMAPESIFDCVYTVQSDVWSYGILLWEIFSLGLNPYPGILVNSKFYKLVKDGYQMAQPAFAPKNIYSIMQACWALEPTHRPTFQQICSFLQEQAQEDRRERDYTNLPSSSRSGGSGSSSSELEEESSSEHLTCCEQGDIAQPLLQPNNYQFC
For orientation: ATP-based viability assays read luminescence as a measure of living cells.

The mark [8] stands for this setting: Kit IC50/Fms IC50, BCR-KIT/BaF3 vs BCR-FMS/BaF3 cells.
Where [9] appears, read: read-out: BCR/BaF3 (IC50 μM) Fms; BCR-FMS/BaF3 cells.
Setting [10] is: read-out: Cyp IC50 (μM) 3A4(BQ), BQ substrate.
Setting [11] is: read-out: Cyp IC50 (μM) 3A4(BFC), BFC substrate.
Where [12] appears, read: read-out: Cell based (IC50 μM) BCR/BaF3 (Fms); BCR-FMS/BaF3 cells, 3 days.

Where two headings read alike, the source gives them in different places. A value given as a limit tells only on which side of the number the result lay.

Sequence of CYP2C9 (P11712 whole entry): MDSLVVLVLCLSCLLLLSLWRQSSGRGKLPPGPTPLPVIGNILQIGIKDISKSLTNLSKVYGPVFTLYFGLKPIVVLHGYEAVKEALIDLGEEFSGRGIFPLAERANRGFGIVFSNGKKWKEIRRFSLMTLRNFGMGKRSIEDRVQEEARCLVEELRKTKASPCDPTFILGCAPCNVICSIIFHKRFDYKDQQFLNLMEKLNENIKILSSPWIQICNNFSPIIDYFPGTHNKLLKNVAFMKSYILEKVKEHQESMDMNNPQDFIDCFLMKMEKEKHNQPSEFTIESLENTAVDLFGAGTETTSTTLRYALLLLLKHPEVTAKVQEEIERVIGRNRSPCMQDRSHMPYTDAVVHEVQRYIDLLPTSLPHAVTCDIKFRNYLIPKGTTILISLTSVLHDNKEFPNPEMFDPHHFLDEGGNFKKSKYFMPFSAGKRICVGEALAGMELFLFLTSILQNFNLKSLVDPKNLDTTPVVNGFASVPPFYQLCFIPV
Sequence of CYP2D6 (P10635 whole entry): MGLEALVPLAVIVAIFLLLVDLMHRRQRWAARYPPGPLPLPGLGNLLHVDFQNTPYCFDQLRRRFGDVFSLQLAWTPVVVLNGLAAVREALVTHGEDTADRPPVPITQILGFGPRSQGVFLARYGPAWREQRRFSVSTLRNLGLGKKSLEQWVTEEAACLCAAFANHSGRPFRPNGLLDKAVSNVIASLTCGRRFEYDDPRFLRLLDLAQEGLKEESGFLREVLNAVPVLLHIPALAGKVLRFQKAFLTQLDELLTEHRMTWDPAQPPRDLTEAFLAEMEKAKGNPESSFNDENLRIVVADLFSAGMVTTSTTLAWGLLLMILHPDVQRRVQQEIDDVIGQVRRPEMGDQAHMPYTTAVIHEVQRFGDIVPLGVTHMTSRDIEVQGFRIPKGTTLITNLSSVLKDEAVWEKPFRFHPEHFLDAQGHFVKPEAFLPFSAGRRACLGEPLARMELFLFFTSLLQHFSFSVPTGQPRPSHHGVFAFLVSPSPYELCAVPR
Sequence of CYP1A2 (P05177 whole entry): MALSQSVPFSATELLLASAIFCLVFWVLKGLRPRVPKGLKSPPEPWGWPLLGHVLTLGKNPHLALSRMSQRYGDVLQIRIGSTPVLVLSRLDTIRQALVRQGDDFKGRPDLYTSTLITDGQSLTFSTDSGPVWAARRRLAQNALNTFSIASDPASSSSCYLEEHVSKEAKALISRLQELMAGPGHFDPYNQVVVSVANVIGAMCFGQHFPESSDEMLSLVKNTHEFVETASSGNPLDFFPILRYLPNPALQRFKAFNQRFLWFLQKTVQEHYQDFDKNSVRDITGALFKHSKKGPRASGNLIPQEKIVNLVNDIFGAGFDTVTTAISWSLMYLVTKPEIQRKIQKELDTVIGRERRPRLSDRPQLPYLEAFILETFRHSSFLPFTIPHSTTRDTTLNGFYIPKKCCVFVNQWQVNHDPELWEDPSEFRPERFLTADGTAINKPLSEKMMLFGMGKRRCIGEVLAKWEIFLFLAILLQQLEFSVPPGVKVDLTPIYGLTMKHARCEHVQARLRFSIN
Sequence of c-Kit kinase (P10721 26-976): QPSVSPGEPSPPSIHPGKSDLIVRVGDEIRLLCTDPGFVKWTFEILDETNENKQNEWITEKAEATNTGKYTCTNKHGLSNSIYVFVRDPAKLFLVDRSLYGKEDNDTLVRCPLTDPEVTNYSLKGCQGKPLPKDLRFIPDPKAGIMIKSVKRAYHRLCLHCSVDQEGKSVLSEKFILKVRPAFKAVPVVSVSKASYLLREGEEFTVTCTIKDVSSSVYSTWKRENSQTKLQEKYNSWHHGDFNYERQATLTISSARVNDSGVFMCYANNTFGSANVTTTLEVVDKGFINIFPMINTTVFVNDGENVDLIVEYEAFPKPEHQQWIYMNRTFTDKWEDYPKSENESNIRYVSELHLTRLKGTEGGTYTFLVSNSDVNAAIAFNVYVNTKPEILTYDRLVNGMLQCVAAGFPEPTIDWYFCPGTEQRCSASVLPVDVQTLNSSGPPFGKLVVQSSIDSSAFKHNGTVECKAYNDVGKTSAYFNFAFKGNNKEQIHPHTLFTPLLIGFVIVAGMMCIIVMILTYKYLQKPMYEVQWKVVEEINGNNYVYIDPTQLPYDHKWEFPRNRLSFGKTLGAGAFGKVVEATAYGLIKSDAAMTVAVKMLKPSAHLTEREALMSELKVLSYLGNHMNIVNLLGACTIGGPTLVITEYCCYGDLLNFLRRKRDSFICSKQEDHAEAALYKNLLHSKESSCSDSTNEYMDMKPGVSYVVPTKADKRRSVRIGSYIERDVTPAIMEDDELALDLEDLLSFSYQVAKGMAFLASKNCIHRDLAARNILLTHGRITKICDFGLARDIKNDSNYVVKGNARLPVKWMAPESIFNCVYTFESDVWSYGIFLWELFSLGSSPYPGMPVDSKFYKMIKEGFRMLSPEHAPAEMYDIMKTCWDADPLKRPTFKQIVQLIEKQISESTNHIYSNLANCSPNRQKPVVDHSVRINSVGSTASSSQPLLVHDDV
Sequence of CYP3A4(BFC) (P08684 whole entry): as the sequence (P08684 whole entry) above

In the case of `COc1ccc(CNc2ccc(Cc3c[nH]c4ncc(F)cc34)c(F)n2)cn1` [Compound P-1622, [6-Fluoro-5-(5-fluoro-1H-pyrrolo[2,3-b]pyridin-3-ylmethyl)-pyridin-2-yl]-(6-methoxy-pyridin-3-ylmethyl)-amine], the IC50 is > 0.1 µM in data set [1]; 5 to 10 µM in data set [2]; 5 to 10 µM in data set [3]; > 10 µM in data set [4] (human, 15 min); > 10 µM in data set [5] (read-out: Cyp IC50 (μM) 2D6); 5 to 10 µM in data set [6]. Besides, the IC50 in data set [7] (setting [9]) is < 0.1 µM. Also, in data set [7] (setting [8]), the “BCR/BaF3 selectivity (Kit IC50/Fms IC50)” value is >20.

As to `Fc1cncc(CNc2ccc(Cc3c[nH]c4ncc(Cl)cc34)c(F)n2)c1` [Compound P-2001, [5-(5-Chloro-1H-pyrrolo[2,3-b]pyridin-3-ylmethyl)-6-fluoro-pyridin-2-yl]-(5-fluoro-pyridin-3-ylmethyl)-amine], the IC50 in data set [1] is > 0.1 µM; in data set [2], 5 to 10 µM; in data set [3], 5 to 10 µM; in data set [4] (human, 15 min), > 10 µM; in data set [5] (read-out: Cyp IC50 (μM) 2D6) it was > 10 µM; in data set [6] it was 5 to 10 µM. Also, in data set [7] (setting [9]), the IC50 was < 0.1 µM. The “BCR/BaF3 selectivity (Kit IC50/Fms IC50)” value in data set [7] (setting [8]) is listed as >20.

On to `Clc1cnc2[nH]cc(Cc3ccc(NCc4ccc(Cl)nc4)nc3)c2c1` [Compound P-2003], for which the IC50 in data set [1] was < 0.1 µM; in data set [2] (read-out: Cyp IC50 (μM) 2C9), < 5 µM; in data set [3] (setting [10]) it was > 10 µM; in data set [4], > 10 µM; in data set [5] (read-out: Cyp IC50 (μM) 2D6), > 10 µM; in data set [6] (setting [11]), 5 to 10 µM. Besides, the IC50 in data set [7] (BCR-FMS/BaF3 cells, 3 days; read-out: Cell based (IC50 μM) BCR/BaF3 (Fms)) is < 0.1 µM; in data set [7] (BCR-FMS/BaF3 cells; read-out: BCR/BaF3 (IC50 μM) Fms) it was < 0.1 µM. For the same compound, in data set [7] (setting [8]), the “BCR/BaF3 selectivity (Kit IC50/Fms IC50)” value is <20.

In the case of `Fc1ccc(CNc2ccc(Cc3c[nH]c4ncc(Cl)cc34)cn2)cn1` [Compound P-2004, [5-(5-chloro-1H-pyrrolo[2,3-b]pyridin-3-ylmethyl)-pyridin-2-yl]-(6-fluoro-pyridin-3-ylmethyl)-amine], the IC50 in data set [1] was < 0.1 µM; in data set [2] (read-out: Cyp IC50 (μM) 2C9), < 5 µM; in data set [3], 5 to 10 µM; in data set [4] (read-out: Cyp IC50 (μM) 1A2), > 10 µM; in data set [5] it was 5 to 10 µM; in data set [6] (setting [11]) it was < 5 µM. The IC50 in data set [7] (setting [9]) and in data set [7] (setting [12]) was < 0.1 µM each time. Also, the “BCR/BaF3 selectivity (Kit IC50/Fms IC50)” value in data set [7] (setting [8]) is <20.

With `Cc1cnc2[nH]cc(Cc3ccc(NCc4ccc(C(F)(F)F)nc4)nc3)c2c1` [Compound P-2019, [5-(5-Methyl-1H-pyrrolo[2,3-b]pyridin-3-ylmethyl)-pyridin-2-yl]-(6-trifluoromethyl-pyridin-3-ylmethyl)-amine], the IC50 in data set [1] was < 0.1 µM; in data set [2] (human, CYP2C9 enzyme (BD Biosciences), 45 min) it was < 5 µM; in data set [3] (setting [10]), > 10 µM; in data set [4] (human, 15 min), > 10 µM; in data set [5] (read-out: Cyp IC50 (μM) 2D6), < 5 µM; in data set [6] (setting [11]), < 5 µM. The IC50 in data set [7] (setting [9]) and in data set [7] (setting [12]) was < 0.1 µM each time. In addition, the “BCR/BaF3 selectivity (Kit IC50/Fms IC50)” value in data set [7] (setting [8]) is <20.

As for `COc1ccc(CNc2ccc(Cc3c[nH]c4ncc(C)cc34)c(F)n2)cn1` [Compound P-2029, [6-Fluoro-5-(5-methyl-1H-pyrrolo[2,3-b]pyridin-3-ylmethyl)-pyridin-2-yl]-(6-methoxy-pyridin-3-ylmethyl)-amine], the IC50 in data set [1] is > 0.1 µM; in data set [2] (read-out: Cyp IC50 (μM) 2C9), < 5 µM; in data set [3] it was 5 to 10 µM; in data set [4] (human, 15 min) it was > 10 µM; in data set [5] (read-out: Cyp IC50 (μM) 2D6), > 10 µM; in data set [6], 5 to 10 µM. Besides, the IC50 in data set [7] (setting [9]) and in data set [7] (setting [12]) was < 0.1 µM throughout. Besides, the “BCR/BaF3 selectivity (Kit IC50/Fms IC50)” value in data set [7] (setting [8]) is reported as >20.

Regarding `COc1cnc2[nH]cc(Cc3ccc(NCc4ccc(OC)nc4)nc3F)c2c1` [Compound P-2030, [6-Fluoro-5-(5-methoxy-1H-pyrrolo[2,3-b]pyridin-3-ylmethyl)-pyridin-2-yl]-(6-methoxy-pyridin-3-ylmethyl)-amine], the IC50 in data set [1] was > 0.1 µM; in data set [2] (read-out: Cyp IC50 (μM) 2C9), < 5 µM; in data set [3] (setting [10]), > 10 µM; in data set [4] (human, 15 min), > 10 µM; in data set [5] (read-out: Cyp IC50 (μM) 2D6), > 10 µM; in data set [6], 5 to 10 µM. The IC50 in data set [7] (setting [9]) and in data set [7] (setting [12]) was < 0.1 µM throughout. In addition, the “BCR/BaF3 selectivity (Kit IC50/Fms IC50)” value in data set [7] (setting [8]) is reported as >20.
